# What was measured:
# Assay type in all cases: cell-based, human
# 253G1 cells [1] = experiment: Study on reagent to be added: fluorescent immunostaining of induced myotube and skeletal muscle cells; conditions: for use of one reagent instead of the reference reagent (CHIR or SB) for induction: 0.5 μM BIO or 10 μM 5B216763 instead of CHIR; for use of one reagent instead of the reference reagent (CHIR or SB) for induction / use of one reagent instead of the reference reagent (SB or FSK) for induction: 1 μM A83-01 instead of SB; for use of combined replacement reagents for induction: several reference reagents (CHIR, SB, DM, FSK) replaced at once; for use of one reagent instead of the reference reagent (SB or FSK) for induction / use of two reagents instead of SB and DM for induction: fibronectin-coated vessel (section 5-2); for use of one reagent instead of the reference reagent (SB or FSK) for induction: 50 μM dbcAMP instead of FSK; for use of two reagents instead of SB and DM for induction: 1 μM A83-01 and 0.1 μM LDN193189
# Experimental: (§1) According to Reference Example 1, 253G1 cells were plated over a Matrigel-coated culture vessel. Two days thereafter, the E8 medium was replaced with B-27 medium supplemented with 5 μM CHIR and 1% AA to start differentiation (the starting day of differentiation was defined as day 0 of differentiation).
# On day 2 of differentiation, the medium was replaced with B-27 medium supplemented with 1% AA, 10 μM SB and 0.5 μM DM. On day 4 of differentiation, the medium was further replaced with B-27 medium supplemented with 1% AA and 10 μM FSK. The culture was continued until day 7 of differentiation.
# On day 7 of differentiation, the medium was replaced with DMEM (high glucose) medium supplemented with 10 μM FSK, 5% StemSure Serum Replacement, 1% AA and 1% ITS-G. The culture was continued with the medium replaced every 2 to 3 days.
# The cells (skeletal muscle precursor cells) on week 3 of differentiation were cryopreserved in the same way as the method described in Example 3. The cryopreserved cells were thawed, plated, and cultured for 2 days in the same way as the method described in Example 3. Then, the medium was replaced with DMEM (high glucose) medium supplemented with 10 μg/mL FGF2, 10 μM FSK, 1% AA, 5% StemSure Serum Replacement and 1% ITS-G. The culture was continued for 2 weeks with the medium replaced every 2 to 3 days.
# The cells thus cultured for 2 weeks were fluorescently immunostained using an antibody recognizing myosin heavy chains (R&D Systems, Inc., clone No.: MF20), an antibody recognizing desmin (Abcam plc.) and Hoechst 33342 for nuclear staining (Dojindo Laboratories). As a result, multinuclear myotube cells costained with both the antibodies were confirmed (FIG. 5, left diagram).
# On week 2 of culture, the medium was replaced with growth factor- and FSK-free DMEM (low glucose) medium supplemented with 1% AA, 5% StemSure Serum Replacement and 1% ITS-G, and the culture was continued with the medium replaced. On week 4 of culture, the cells were fluorescently immunostained using an antibody recognizing α-actinin (Sigma-Aldrich Co. LLC), an antibody recognizing dystrophin (Abcam plc.) and Hoechst 33342. As a result, multinuclear skeletal muscle cells were stained (FIG. 5, right diagram).
# Various changes in conditions were studied with reference to the experiment described above. The frozen cells on weeks 2 and 4 of culture were similarly fluorescently immunostained and evaluated.
# Cells were obtained in the same way as the method described in the preceding section “5-1” except that a culture vessel coated with fibronectin (Sigma-Aldrich Co. LLC) instead of Matrigel was used. After thawing, myotube cells (FIG. 6, left diagram) and skeletal muscle cells (FIG. 6, right diagram) were confirmed on weeks 2 and 4, respectively, of culture.
# 253G1 cells [2] = experiment: Pan-mesodermal marker gene expression (real-time PCR) on day 2 of differentiation; conditions: CHIR 1 to 6 μM, ratio to undifferentiated iPS cells
# Experimental: as §1, with “with 1 to 6” for “with 5”
# (§2) On day 2 of differentiation, change in the expression of pan-mesodermal marker genes BRACHYURY and TBX6 was examined. The change in gene expression was analyzed by the following procedures: total RNA was prepared using RNeasy 96 Kit or RNeasy Mini Kit (Qiagen N.V.), and cDNA was then synthesized from the total RNA using reverse transcriptase (PrimeScript RT reagent kit, Takara Bio Inc.). The obtained cDNA was subjected to real-time PCR using a Taqman probe (Applied Biosystems, Inc.). A sample prepared from the 253G1 cells before the start of differentiation was used as a reference sample. The gene expression levels of BRACHYURY and TBX6 were calculated by the comparative Ct method.
# 253G1 cells [3] = experiment: Somitic mesoderm marker gene expression on day 7 of differentiation; conditions: 2 to 4 μM CHIR days 0 to 2, then SB (and DM) days 2 to 4, then FSK days 4 to 7
# Experimental: as §1, with “with 1 to 6” for “with 5”
# as §2
# On day 2 of differentiation, the medium was replaced with B-27 medium supplemented with 1% AA and 10 μM SB (and 0.3 to 1 μM DM). On day 4 of differentiation, the medium was further replaced with B-27 medium supplemented with 1% AA and 10 μM FSK. […]
# On day 7 of differentiation, the expression levels of somitic mesoderm marker genes PAX3 and PAX7 were measured. […]
Molecule,use of one reagent instead of the reference reagent (CHIR or SB) for induction (253G1 cells [1]; Matrigel (section 5-1)),use of combined replacement reagents for induction (253G1 cells [1]; Matrigel (section 5-1)),"induction of differentiation into skeletal muscle precursor cells (253G1 cells [1]; Matrigel (section 5-1), 50 μM dbcAMP instead of FSK from day 4 of differentiation)",use of one reagent instead of the reference reagent (SB or FSK) for induction (253G1 cells [1]),use of two reagents instead of SB and DM for induction (253G1 cells [1]),BRACHYURY and TBX6 expression (253G1 cells [2]),expression of somitic mesoderm marker genes PAX3 and PAX7 (253G1 cells [3])
6-bromoindirubin-3-oxime [BIO],it was possible,it was possible,,,,,
"CCCC(=O)Nc1ncnc2c1ncn2[C@@H]1O[C@@H]2COP(=O)(O)O[C@H]2[C@H]1OC(=O)CCC [dbcAMP, dibutyryl cAMP]",,it was possible,it was possible to induce differentiation into skeletal muscle precursor cells,it was possible,,,
"Cc1cccc(-c2nn(C(=S)Nc3ccccc3)cc2-c2ccnc3ccccc23)n1 [A83-01, 3-(6-methyl-2-pyridinyl)-N-phenyl-4-(4-quinolinyl)-1H-pyrazole-1-carbothioamide]",it was possible,it was possible,,it was possible,it was possible,,
"Cl.c1ccc2c(-c3cnn4cc(-c5ccc(N6CCNCC6)cc5)cnc34)ccnc2c1 [LDN193189, 4-[6-(4-piperazin-1-yl-phenyl)-pyrazolo[1,5-α]pyrimidin-3-yl]-quinoline hydrochloride]",,it was possible,,,it was possible,,
"Cc1c[nH]c(-c2cnc(NCCNc3ccc(C#N)cn3)nc2-c2ccc(Cl)cc2Cl)n1 [CHIR, 6-[[2-[[4-(2,4-dichlorophenyl)-5-(4-methyl-1H-imidazol-2-yl)-2-pyrimidinyl]amino]ethyl]amino]nicotinonitrile]",,,,,,increase in a CHIR concentration-dependent manner,high expression
"Cn1cc(C2=C(c3ccc(Cl)cc3Cl)C(=O)NC2=O)c2ccccc21 [5B216763, 3-(2,4-dichlorophenyl)-4-(1-methyl-1H-indol-3-yl)-1H-pyrrole-2,5-dione]",it was possible,it was possible,,,,,

# Source: US20190338251A1, “Skeletal Muscle Precursor Cells and Production Method for Skeletal Muscle Cells” (Takeda Pharmaceutical Company Limited, priority 2016, published 2019)
